Our source for the Antiviral activity group values is patent US12138243B2, “Antiviral use of FABP4 modulating compounds” (CRESCENTA BIOSCIENCES, priority 2021, dated 2024).

The test deals with human coronavirus OC43. Briefly: Antiviral activity: human coronavirus OC43 replication in differentiated 3T3-L1 mouse adipocyte cells, viral titers by TCID50 assay in MRC5 cells. The class given is cell-based. The note with it: median fold reduction of virus titers vs vehicle control (DMSO); final compound concentration 10 µM; medium collected 24 hours after infection; differentiated 3T3-L1 adipocytes, 0.05 TCID50 per cell. As for the experimental part: Activity of compounds affecting viral replication and disease was tested against coronavirus replication in differentiated 3T3-L1 mouse adipocyte cells using human coronavirus OC43 as a model virus. 3T3-L1 preadipocytes (ATCC) were routinely cultured in a growth medium composed of DMEM high-glucose (Sigma), 10% FBS (Gibco), 10 U/ml penicillin and 10 μg/ml streptomycin (P/S; Gibco) in a standard cell culture incubator at 37° C. To induce adipogenic differentiation, a confluent layer of 3T3-L1 cells were incubated with the growth medium containing 2 μM rosiglitazone, 1 μM dexamethasone, 500 μM IBMX, and 1 μg/ml insulin (Sigma). Forty-eight (48) hours later (on day 2) and on days 4 and 6, medium of the cells was replaced with fresh medium containing 1 μg/ml insulin. On days 8 and 10, the medium was refreshed with regular growth medium and addition of insulin was omitted. On day 11 or 12, the cells were infected with human coronavirus OC43 (ATCC) at a multiplicity of 0.05 TCID50 (tissue-culture infectious-dose 50) per cell in DMEM containing 2% heat-inactivated FBS and P/S. One hour after infection, medium of the cells were replaced with fresh medium containing either the indicated FABP4 modulating compounds or the vehicle in which the compounds were dissolved (DMSO). The final compound concentration was 10 µM and final concentration of DMSO was 0.1% (v/v). The cells were incubated at 35° C. during the course of infection and compound treatment. Twenty-four hours after infection, medium of the cells was collected, cleared by centrifugation at 2,000g for 5 minutes, and frozen at −80 degrees C. until further processing. The viral titers in the samples were determined by TCID50 assay in MRC5 cells (ATCC) using Reed-Munch method, and median fold reduction of virus titers in compound treated cells compared to vehicle control was calculated.
Take `CCCCC1CCCc2c(n(Cc3cccc(C(N)=O)c3)c3c(C(=O)O)cccc23)C1` (centres unmarked) [Compound 1, 7-butyl-5-[(3-carbamoylphenyl)methyl]-5H,6H,7H,8H,9H,10H-cyclohepta[b]indole-4-carboxylic acid]: the Antiviral activity group result was “B (between 10- to 99-fold)”. As to `CCCCC1CCCc2c(n(Cc3cccc(C#N)c3)c3c(C(=O)O)cccc23)C1` (centres unmarked) [Compound 2, 7-butyl-5-[(3-cyanophenyl)methyl]-5H,6H,7H, 8H,9H,10H-cyclohepta[b]indole-4-carboxylic acid], the Antiviral activity group result was “A (reduced virus titers >100-fold)”. Regarding `CCCCC1CCCc2c(n(Cc3ccc(C)cc3)c3c(C(=O)O)cccc23)C1` (centres unmarked) [Compound 3, 7-butyl-5-[(4-methylphenyl)methyl]-5H,6H,7H,8H,9H,10H-cyclohepta[b]indole-4-carboxylic acid], the Antiviral activity group entry is “B (between 10- to 99-fold)”. As to `CCCCC1CCCc2c(n(Cc3ccccc3C)c3c(C(=O)O)cccc23)C1` (centres unmarked) [Compound 4, 7-butyl-5-[(2-methylphenyl)methyl]-5H,6H,7H,8H,9H,10H-cyclohepta[b]indole-4-carboxylic acid], the Antiviral activity group result is listed as “A (reduced virus titers >100-fold)”. Then `CCCCCCC1CCCc2c(n(Cc3cccc(C(N)=O)c3)c3c(C(=O)O)cccc23)C1` (centres unmarked) [Compound 5, 5-[(3-carbamoylphenyl)methyl]-7-hexyl-5H,6H,7H,8H,9H,10H-cyclohepta[b]indole-4-carboxylic acid], with “B (between 10- to 99-fold)”. Turning to `CCCCCCC1CCCc2c(n(Cc3cccc(C#N)c3)c3c(C(=O)O)cccc23)C1` (centres unmarked) [Compound 6, 5-[(3-cyanophenyl)methyl]-7-hexyl-5H,6H,7H,8H,9H,10H-cyclohepta[b]indole-4-carboxylic acid], the Antiviral activity group entry is listed as “A (reduced virus titers >100-fold)”. For the compound `CCCCCCC1CCc2c(n(Cc3cccc(C(N)=O)c3)c3c(C(=O)O)cccc23)C1` (centres unmarked) [Compound 7, 9-[(3-carbamoylphenyl)methyl]-2-hexyl-2,3,4,9-tetrahydro-1H-carbazole-8-carboxylic acid], the Antiviral activity group result is “B (between 10- to 99-fold)”.

For the compound `CCCCCCC1CCc2c(n(Cc3cccc(C#N)c3)c3c(C(=O)O)cccc23)C1` (centres unmarked) [Compound 8, 9-[(3-cyanophenyl)methyl]-2-hexyl-2,3,4,9-tetrahydro-1H-carbazole-8-carboxylic acid], the Antiviral activity group entry was “B (between 10- to 99-fold)”. Turning to `CCCCCCC1CCc2c(n(Cc3cccnc3)c3c(C(=O)O)cccc23)C1` (centres unmarked) [Compound 9, 2-hexyl-9-[(pyridin-3-yl)methyl]-2,3,4,9-tetrahydro-1H-carbazole-8-carboxylic acid], the Antiviral activity group entry was “A (reduced virus titers >100-fold)”.

Take `CCCCCCC1CCc2c(n(Cc3ccccc3C)c3c(C(=O)O)cccc23)C1` (centres unmarked) [Compound 10, 2-hexyl-9-[(2-methylphenyl)methyl]-2,3,4,9-tetrahydro-1H-carbazole-8-carboxylic acid]: the Antiviral activity group entry is given as “A (reduced virus titers >100-fold)”. For `CCCCCCC1CCc2c(n(Cc3ccccc3F)c3c(C(=O)O)cccc23)C1` (centres unmarked) [Compound 11, 9-[(2-fluorophenyl)methyl]-2-hexyl-2,3,4,9-tetrahydro-1H-carbazole-8-carboxylic acid], the Antiviral activity group result is on record as “A (reduced virus titers >100-fold)”. For the compound `CCCCC1CCCc2c1n(Cc1cccc(C(N)=O)c1)c1c(C(=O)O)cccc21` (centres unmarked) [Compound 12, 1-butyl-9-[(3-carbamoylphenyl)methyl]-2,3,4,9-tetrahydro-1H-carbazole-8-carboxylic acid], the Antiviral activity group entry is listed as “C (between 2- to 9-fold)”. With `CCCCC1CCCc2c1n(Cc1cccc(C#N)c1)c1c(C(=O)O)cccc21` (centres unmarked) [Compound 13, 1-butyl-9-[(3-cyanophenyl)methyl]-2,3,4,9-tetrahydro-1H-carbazole-8-carboxylic acid], the Antiviral activity group entry is “B (between 10- to 99-fold)”. With `CCCCC1CCCCc2c1n(Cc1cccc(C(N)=O)c1)c1c(C(=O)O)cccc21` (centres unmarked) [Compound 14, 6-butyl-5-[(3-carbamoylphenyl)methyl]-5H,6H,7H,8H,9H,10H-cyclohepta[b]indole-4-carboxylic acid], the Antiviral activity group entry is “B (between 10- to 99-fold)”.

As to `CCCCC1CCCCc2c1n(Cc1cccc(C#N)c1)c1c(C(=O)O)cccc21` (centres unmarked) [Compound 15, 6-butyl-5-[(3-cyanophenyl)methyl]-5H,6H,7H,8H,9H,10H-cyclohepta[b]indole-4-carboxylic acid], the Antiviral activity group result was “B (between 10- to 99-fold)”.

Consider `CCCCC1CCc2c1n(Cc1cccc(C(N)=O)c1)c1c(C(=O)O)cccc21` (centres unmarked) [Compound 16, 3-butyl-4-[(3-carbamoylphenyl)methyl]-1H,2H,3H,4H-cyclopenta[b]indole-5-carboxylic acid], for which the Antiviral activity group result was “C (between 2- to 9-fold)”.

For `CCCCC1Cc2c(n(Cc3cccc(C(N)=O)c3)c3c(C(=O)O)cccc23)C1` (centres unmarked) [Compound 17, 2-butyl-4-[(3-carbamoylphenyl)methyl]-1H,2H,3H,4H-cyclopenta[b]indole-5-carboxylic acid], the Antiviral activity group entry is recorded as “C (between 2- to 9-fold)”. For the compound `CCCCC1Cc2c(n(Cc3cccc(C#N)c3)c3c(C(=O)O)cccc23)C1` (centres unmarked) [Compound 18, 2-butyl-4-[(3-cyanophenyl)methyl]-1H,2H,3H,4H-cyclopenta[b]indole-5-carboxylic acid], the Antiviral activity group entry is “C (between 2- to 9-fold)”. In the case of `CCCCC1CCCCc2c1c1cccc(C(=O)O)c1n2Cc1cccc(C(N)=O)c1` (centres unmarked) [Compound 19, 10-butyl-5-[(3-carbamoylphenyl)methyl]-5H,6H,7H,8H,9H,10H-cyclohepta[b]indole-4-carboxylic acid] it was “C (between 2- to 9-fold)”; in that of `CCCCC1CCc2c(c3cccc(C(=O)O)c3n2Cc2cccc(C(N)=O)c2)C1` (centres unmarked) [Compound 20, 3-butyl-9-[(3-carbamoylphenyl)methyl]-2,3,4,9-tetrahydro-1H-carbazole-8-carboxylic acid], “C (between 2- to 9-fold)”. Turning to `CCc1c(-c2ccccc2)c(-c2ccccc2)nn1-c1ccccc1-c1cccc(OCC(=O)O)c1` [Compound 21, 2-((2′-(5-Ethyl-3,4-diphenyl-1H-pyrazol-1-yl)-[1,1′-biphenyl]-3-yl)oxy)acetic acid, reference compound], the Antiviral activity group entry was “C (between 2- to 9-fold)”.

For the compound `Clc1ccc2nc(N3CCCCC3)c(-c3nnn[nH]3)c(-c3ccccc3)c2c1` [Compound 22, 6-chloro-4-phenyl-2-(piperidin-1-yl)-3-(1H-tetrazol-5-yl)quinoline, reference compound], the Antiviral activity group result is recorded as “A (reduced virus titers >100-fold)”. As for `Cc1c(Cl)cccc1OCc1cc(=O)n2nc(-c3ccccc3)nc2[nH]1` [Compound 23, 5-((3-chloro-2-methylphenoxy)methyl)-2-phenyl-[1,2,4]triazolo[1,5-a]pyrimidin-7(4H)-one, reference compound], the Antiviral activity group entry is “B (between 10- to 99-fold)”.
